Measured values from publication PMC12212452, “Studies of All-trans Retinoic Acid Transport in the Eye” (Investigative Ophthalmology & Visual Science, 2025).

Columns and labels:
Assay in all cases: tryptophan fluorescence quenching, quadratic fit
Settings in all cases: read-out: Association Constant / Quadratic Model Ka (×10^5 M^-1) (converted)
[1] = biological target: T1, BSA (bovine serum albumin) (Bos taurus, UniProt P02769); type: binding
T1 construct: gene ALB; not biotinylated in the Ka titrations
From the text: tryptophan fluorescence quenching, quadratic fit on BSA (bovine serum albumin)

[2] = biological target: T2, CRABP2 (cellular retinoic acid-binding protein 2) (Mus musculus, UniProt P22935)
T2 construct: recombinant in E. coli BL21(DE3), GST tag removed by PreScission Protease
T2 sequence (P22935 1-138): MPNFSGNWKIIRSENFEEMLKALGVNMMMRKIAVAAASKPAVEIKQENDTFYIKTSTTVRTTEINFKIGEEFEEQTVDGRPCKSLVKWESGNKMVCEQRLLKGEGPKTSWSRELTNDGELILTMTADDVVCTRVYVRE
From the text: tryptophan fluorescence quenching, quadratic fit on CRABP2 (cellular retinoic acid-binding protein 2)

[3] = biological target: T3, RBP1 (cellular retinol-binding protein 1) (Mus musculus, UniProt Q00915)
T3 construct: recombinant in E. coli BL21, GST tag cleaved with ProTEV protease
T3 sequence (Q00915 1-135): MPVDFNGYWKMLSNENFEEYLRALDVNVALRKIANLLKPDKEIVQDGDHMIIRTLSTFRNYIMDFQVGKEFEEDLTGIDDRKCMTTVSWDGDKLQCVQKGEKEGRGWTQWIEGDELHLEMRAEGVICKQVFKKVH
From the text: tryptophan fluorescence quenching, quadratic fit on RBP1 (cellular retinol-binding protein 1)

T1 sequence (P02769 25-607): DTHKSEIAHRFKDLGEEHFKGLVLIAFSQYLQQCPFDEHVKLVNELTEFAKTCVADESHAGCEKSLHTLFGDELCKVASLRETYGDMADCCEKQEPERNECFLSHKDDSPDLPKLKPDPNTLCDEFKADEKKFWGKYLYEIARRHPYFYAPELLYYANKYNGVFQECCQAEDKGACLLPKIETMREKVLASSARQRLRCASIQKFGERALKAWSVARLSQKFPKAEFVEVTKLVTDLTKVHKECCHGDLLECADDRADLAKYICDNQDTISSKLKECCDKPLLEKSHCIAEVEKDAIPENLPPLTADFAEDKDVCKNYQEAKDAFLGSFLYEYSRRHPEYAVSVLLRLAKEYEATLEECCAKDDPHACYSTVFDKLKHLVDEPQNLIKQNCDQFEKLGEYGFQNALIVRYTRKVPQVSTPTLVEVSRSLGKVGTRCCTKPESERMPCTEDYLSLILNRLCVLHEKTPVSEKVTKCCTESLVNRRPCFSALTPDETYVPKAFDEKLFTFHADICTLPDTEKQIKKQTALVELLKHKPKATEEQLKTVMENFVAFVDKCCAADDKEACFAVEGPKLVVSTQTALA

Row | Kd [1] | Kd [2] | Kd [3] | Structure (SMILES)
1 | 4.17 µM | 0.0128 µM | – | CC1=C(/C=C/C(C)=C/C=C/C(C)=C/C(=O)O)C(C)(C)CCC1 [atRA]
2 | 4.76 µM | 0.0149 µM | 1.27 µM | CC(C)N1CCC(C)(C)c2cc(C#Cc3ccc(C(=O)O)cc3)ccc21 [floRA]
